Earlier results, collected in US9201077B2 (Colorado State University Research Foundation, priority 2009, dated 2015).

Key:
[1] = tested on: Anti-Progesterone (R4859) Antibody raised against 11α-hemisuccinate progesterone; details: tested by UC Davis Endocrinology Laboratory
[2] = tested on: antibody used in progesterone assays; details: conventional progesterone assay

SMILES | % Cross Reaction [1] | cross-reaction with the antibody used in progesterone assays [2]
CC(=O)[C@H]1CC[C@H]2[C@@H]3CC[C@H]4CC(=O)CC[C@]4(C)[C@H]3CC[C@]12C [5α-Pregnane-3,20-dione] | 12.19% | 
CC(=O)[C@H]1CC[C@H]2[C@@H]3CCC4=CC(=O)CC[C@]4(C)[C@H]3[C@H](O)C[C@]12C [11α-OH-Progesterone] | 40.00% | 
CC(=O)[C@@]1(O)CC[C@H]2[C@@H]3CCC4=CC(=O)CC[C@]4(C)[C@H]3CC[C@@]21C [17α-OH-Progesterone] | 0.38% | 
C[C@H](O)[C@H]1CC[C@H]2[C@@H]3CCC4=CC(=O)CC[C@]4(C)[C@H]3CC[C@]12C [20α-OH-Progesterone] | 0.13% | 
C[C@@H](O)[C@H]1CC[C@H]2[C@@H]3CCC4=CC(=O)CC[C@]4(C)[C@H]3CC[C@]12C [20β-OH-Progesterone] | 0.13% | 
C[C@]12CCC(=O)C=C1CC[C@@H]1[C@@H]2[C@@H](O)C[C@@]2(C)[C@H]1CC[C@]2(O)C(=O)CO [Cortisol] | <0.04% | 
C[C@]12CC[C@@H]3c4ccc(O)cc4CC[C@H]3[C@@H]1CC[C@@H]2O [Estradiol 17β] | <0.01% | 
C[C@H](O)[C@H]1CC[C@H]2[C@@H]3CC[C@@H]4C[C@H](O)CC[C@]4(C)[C@H]3CC[C@]12C [Pregnanediol] | <0.01% | 
CC(=O)[C@H]1CC[C@H]2[C@@H]3CC=C4C[C@@H](O)CC[C@]4(C)[C@H]3CC[C@]12C [Pregnenolone] | 0.12% | 
CC(=O)[C@H]1CC[C@H]2[C@@H]3CCC4=CC(=O)CC[C@]4(C)[C@H]3CC[C@]12C [Progesterone] | 100.00% | 
C[C@]12CC[C@H]3[C@@H](CCC4=CC(=O)CC[C@@]43C)[C@@H]1CC[C@@H]2O [Testosterone] | <0.01% | 
C=CC[C@]1(O)CC[C@H]2[C@@H]3CCC4=CC(=O)CCC4=C3C=C[C@@]21C [altrenogest] |  | does not cross-react
